System: SYO-1 tumor spheroids, viability % test/control
Experiment: Anticancer human tumor SYO-1 cell line growth inhibition;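 further: spheroids exposed to agents for 7 days before viability read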;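 on viability, T/C: 100% = DMSO vehicle control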
Conditions: spheroids with HUVEC and MSC; for IC50: curve of first compound; for viability, T/C: stronger effect = lower value
Source text: Multicellular complex tumor spheroid response to DNA repair inhibitors in combination with DNA-damaging drugs
This study explores the anticancer activities of DNA-damaging drugs and inhibitors of DNA damage repair, both as single agents and in combinations. Complex tumor spheroids comprised of malignant cells, endothelial cells and mesenchymal stem cells served as an in vitro model for human solid tumors. This model system incorporates physiologically relevant features and patient-derived or established malignant cell lines with clinically relevant genetic alterations from many tumor types. Twenty-six patient-derived or established malignant cell lines were evaluated representing sarcoma, melanoma, small cell lung cancer (SCLC), non-small cell lung cancer (NSCLC), as well as bladder, ovarian and pancreatic cancers. The concentration ranges selected for each drug and investigational agent were based upon clinically achievable concentrations if the clinical Cmax of the agent was known.
Compounds. The drugs and compounds olaparib (NSC753686), talazoparib (NSC767125), berzosertib (NSC777718), elimusertib (NSC800525), nedisertib (NSC802822), VX-984 (NSC792969), AZD-1390 (NSC803789), temozolomide (NSC362856), topotecan (NSC609699), trabectedin (NSC813783), staurosporine (NSC755774), and gemcitabine (NSC613327) were obtained from the National Cancer Institute (NCI) Developmental Therapeutics Program Chemical Repository. The FDA-approved anticancer drug set is available from the Developmental Therapeutics Program at https://dtp.cancer.gov/organization/dscb/obtaining/available_plates.htm. […] The stock solutions were prepared in dimethyl sulfoxide (DMSO, Sigma-Aldrich, St. Louis, MO, cat. D2650) at 400-fold the tested concentration and stored at -70 degrees C. Prior to their use, the stock solutions were diluted in fresh medium and the final DMSO concentration in the assay was 0.25% (v/v). All drugs and investigational agents were tested over a range starting from a high concentration at or near the clinical Cmax and decreasing in half-log increments. If the clinical Cmax for an agent had not been determined, the highest concentration tested was 10 microM.
Cell Lines. The patient-derived cancer cell (PDC) lines: 156681-154-R-J1-PDC, 283228-195-R-J1-PDC, 287954-098-R-J1-PDC, 292921-168-R-J2-PDC, 349418-098-R-PDC, 425362-245-T-J1-PDC, 556581-035-R-J1-PDC, and BL0293-F563-PDC were received from the NCI Patient-Derived Models Repository (PDMR, https://pdmr.cancer.gov). The established cell lines HS-SY-2 (RRID:CVCL_8719), MPNST, and SYO-1 (RRID:CVCL_7146) were obtained from the Sloan Kettering Institute. The alveolar soft parts sarcoma cell line ASPS-1 (RRID:CVCL_S738) was established at the NCI and grown from internal seed stocks. The following established cell lines were purchased from the American Type Culture Collection (ATCC, Manassas, VA): G-401 (ATCC, cat. CRL-1441, RRID:CVCL_0270), SW982 (ATCC, cat. HTB-93, RRID:CVCL_1734), VA-ES-BJ (ATCC, cat. CRL-2138, RRID:CVCL_1785), NCI-H719 (ATCC, cat. CRL-5837, RRID:CVCL_1582), NCI-H196 (ATCC, cat. CRL-5823, RRID:CVCL_1509), NCI-H841 (ATCC, cat. CRL-5845, RRID:CVCL_1595), NCI-H1618 (ATCC, cat. CRL-5879, RRID:CVCL_1480), NCI-H1876 (ATCC, cat. CRL-5902, RRID:CVCL_1503), DMS 114 (ATCC, cat. CRL-2066; RRID:CVCL_1174), NCI-H211 (ATCC, cat. CRL-5824; RRID:CVCL_1529), and SW 1271 (ATCC, cat. CRL-2177, RRID:CVCL_1716). The small cell lung cancer cell line COR-L88 was purchased from Sigma-Aldrich (cat. 92031917-1VL, RRID:CVCL_1141). The non-small cell lung cancer cell lines NCI-H226 (RRID:CVCL_1544) and NCI-H322M (RRID:CVCL_1557) were established at the NCI and grown from internal seed stocks. Pooled donor human umbilical vein endothelial cells (HUVEC, Lonza, cat. CC-2519) and human mesenchymal stem cells (hMSC, Lonza, cat. PT-2501) were purchased from Lonza (Walkersville, MD).
Cell Culture. All cells were maintained in an incubator at 37 degrees C and 5% CO2 with 95% humidity. […]

Cc1sc2c(c1C)C(c1ccc(Cl)cc1)=NC(CC(=O)Nc1ccc(O)cc1)c1nnc(C)n1-2 (stereo not given) + CC[C@@]1(O)C(=O)OCc2c1cc1n(c2=O)Cc2cc3c(CN(C)C)c(O)ccc3nc2-1
IC50 (second compound 0.003 µM): 43.4 nM | IC50 (second compound 0.00949 µM): < 9.49 nM | IC50 (second compound 0.03 µM): < 9.49 nM | IC50 (second compound 0.0949 µM): < 9.49 nM | IC50 (second compound 0.3 µM): < 9.49 nM | viability, T/C (second compound 0.003 µM, first compound 0.00949 µM): 84.9% | viability, T/C (second compound 0.003 µM, first compound 0.03 µM): 70.3% | viability, T/C (second compound 0.003 µM, first compound 0.0949 µM): 7.08% | viability, T/C (second compound 0.003 µM, first compound 0.3 µM): 0.99% | viability, T/C (second compound 0.003 µM, first compound 0.949 µM): 0.77% | viability, T/C (second compound 0.003 µM, first compound 3 µM): 0.63% | viability, T/C (second compound 0.00949 µM, first compound 0.00949 µM): 6.31% | viability, T/C (second compound 0.00949 µM, first compound 0.03 µM): 3.24% | viability, T/C (second compound 0.00949 µM, first compound 0.0949 µM): 1.18% | viability, T/C (second compound 0.00949 µM, first compound 0.3 µM): 1.31% | viability, T/C (second compound 0.00949 µM, first compound 0.949 µM): 0.7% | viability, T/C (second compound 0.00949 µM, first compound 3 µM): 0.6% | viability, T/C (second compound 0.03 µM, first compound 0.00949 µM): 1.74% | viability, T/C (second compound 0.03 µM, first compound 0.03 µM): 1.47% | viability, T/C (second compound 0.03 µM, first compound 0.0949 µM): 1.35% | viability, T/C (second compound 0.03 µM, first compound 0.3 µM): 7.03% | viability, T/C (second compound 0.03 µM, first compound 0.949 µM): 0.62% | viability, T/C (second compound 0.03 µM, first compound 3 µM): 0.49% | viability, T/C (second compound 0.0949 µM, first compound 0.00949 µM): 1.62% | viability, T/C (second compound 0.0949 µM, first compound 0.03 µM): 1.4% | viability, T/C (second compound 0.0949 µM, first compound 0.0949 µM): 0.87% | viability, T/C (second compound 0.0949 µM, first compound 0.3 µM): 1.04% | viability, T/C (second compound 0.0949 µM, first compound 0.949 µM): 0.66% | viability, T/C (second compound 0.0949 µM, first compound 3 µM): 0.74% | viability, T/C (second compound 0.3 µM, first compound 0.00949 µM): 1.64% | viability, T/C (second compound 0.3 µM, first compound 0.03 µM): 1.48% | viability, T/C (second compound 0.3 µM, first compound 0.0949 µM): 1.05% | viability, T/C (second compound 0.3 µM, first compound 0.3 µM): 0.75% | viability, T/C (second compound 0.3 µM, first compound 0.949 µM): 0.47% | viability, T/C (second compound 0.3 µM, first compound 3 µM): 0.55%
